The values that follow come from publication PMC9469095, “Toolkit of Approaches To Support Target-Focused Drug Discovery for Plasmodium falciparum Lysyl tRNA Synthetase” (ACS Infectious Diseases, 2022).

Assay [1] addresses T1, HsKRS (Homo sapiens, UniProt Q15046).
T1 construct: gene KARS1
Nature of the assay: biochemical. Set-up: HsKRS lysine activation, pyrophosphate release with BIOMOL Green absorbance at 650 nm. The conditions noted are these: read-out: HsKRS pIC50 (converted). The protocol:
(§1) PfKRS assay wells contained PfKRS assay buffer (100 mM Hepes; pH 7.4, 100 mM NaCl, 20 mM MgCl2, 0.01% (v/v) Igepal and 1 mM DTT) plus 20 nM PfKRS, 200 μM ATP, 400 μM L-lysine, and 0.5 U/mL pyrophosphatase. HsKRS reactions contained HsKRS assay buffer (30 mM Tris; pH 8, 140 mM NaCl, 40 mM MgCl2, 30 mM KCl, 0.01% (v/v) Brij and 1 mM DTT) plus 400 nM HsKRS, 3.5 μM ATP, 6 μM L-lysine, and 0.5 U/mL pyrophosphatase. Assays were performed by adding 25 μL of assay buffer with enzyme to all assay wells, before the reaction was initiated with the addition of a 25 μL substrate mixture containing L-lysine, ATP, and pyrophosphatase (a substrate mix with L-lysine omitted was added to “no lysine” control wells on each assay plate). Following a 6 h (PfKRS) or 3 h (HsKRS) reaction at RT, the assay was stopped with the addition of 50 μL BIOMOL Green. The BIOMOL Green signal was allowed to develop for 30 min before the absorbance of each well was read at 650 nm using an EnVision multilabel plate reader (PerkinElmer Life Sciences) or a PheraStar plate reader (BMG). All [compound left out] dispensing steps were carried out using a Thermo Scientific WellMate dispenser (Matrix). To generate pIC50 data for hit compounds in the PfKRS or HsKRS assays, 10-point inhibitor dose–response curves were prepared in 384-well assay plates using an ECHO 550 acoustic dispenser (Labcyte). Following preparation of the inhibitor curves, assays were carried out as described above. ActivityBase from IDBS (version 8.0.5.4) was used for data processing and analysis, with percentage inhibition values determined relative to 100% inhibition (“no-lysine” control) and 0% inhibition control wells on each plate. All IC50 curve fitting was undertaken using ActivityBase XE (version 7.7.1) from IDBS. A four-parameter logistic dose–response curve was utilized (XLfit model 203) with prefit used for all four parameters.

Assay [2] addresses T2, PfKRS (cytosolic lysyl tRNA synthetase) (Plasmodium falciparum, UniProt Q8IDJ8).
T2 construct: gene PF3D7_1350100
Nature of the assay: biochemical. Set-up: PfKRS lysine activation, pyrophosphate release with BIOMOL Green absorbance at 650 nm. The conditions noted are these: read-out: PfKRS pIC50 (converted). The method, then:
as §1
Target sequence in this assay (Q8IDJ8 1-583): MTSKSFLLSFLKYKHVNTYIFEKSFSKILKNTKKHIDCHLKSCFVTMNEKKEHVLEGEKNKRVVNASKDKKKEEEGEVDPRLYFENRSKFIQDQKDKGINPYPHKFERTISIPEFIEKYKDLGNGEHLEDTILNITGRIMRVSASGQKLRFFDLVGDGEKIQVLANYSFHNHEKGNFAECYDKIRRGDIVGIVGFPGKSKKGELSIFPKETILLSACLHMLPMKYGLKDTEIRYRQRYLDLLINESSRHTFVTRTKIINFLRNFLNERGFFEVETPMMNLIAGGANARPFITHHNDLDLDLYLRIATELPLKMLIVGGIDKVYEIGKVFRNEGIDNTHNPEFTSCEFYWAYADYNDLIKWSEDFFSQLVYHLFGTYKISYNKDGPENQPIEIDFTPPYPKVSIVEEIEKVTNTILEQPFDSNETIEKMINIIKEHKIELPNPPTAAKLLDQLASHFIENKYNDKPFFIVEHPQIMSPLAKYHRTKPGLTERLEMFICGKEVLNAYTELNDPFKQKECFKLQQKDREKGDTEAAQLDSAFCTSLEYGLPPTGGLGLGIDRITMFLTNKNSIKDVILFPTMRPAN

Assay [3] concerns the target T2, PfKRS (cytosolic lysyl tRNA synthetase). Nature of the assay: isothermal thermal proteome profiling at […] °C in P. falciparum lysate. Type of assay: cell-based.
Target sequence in this assay (Q8IDJ8 entry or part of it): as the sequence (Q8IDJ8 1-583) above

T1 sequence (Q15046 whole entry): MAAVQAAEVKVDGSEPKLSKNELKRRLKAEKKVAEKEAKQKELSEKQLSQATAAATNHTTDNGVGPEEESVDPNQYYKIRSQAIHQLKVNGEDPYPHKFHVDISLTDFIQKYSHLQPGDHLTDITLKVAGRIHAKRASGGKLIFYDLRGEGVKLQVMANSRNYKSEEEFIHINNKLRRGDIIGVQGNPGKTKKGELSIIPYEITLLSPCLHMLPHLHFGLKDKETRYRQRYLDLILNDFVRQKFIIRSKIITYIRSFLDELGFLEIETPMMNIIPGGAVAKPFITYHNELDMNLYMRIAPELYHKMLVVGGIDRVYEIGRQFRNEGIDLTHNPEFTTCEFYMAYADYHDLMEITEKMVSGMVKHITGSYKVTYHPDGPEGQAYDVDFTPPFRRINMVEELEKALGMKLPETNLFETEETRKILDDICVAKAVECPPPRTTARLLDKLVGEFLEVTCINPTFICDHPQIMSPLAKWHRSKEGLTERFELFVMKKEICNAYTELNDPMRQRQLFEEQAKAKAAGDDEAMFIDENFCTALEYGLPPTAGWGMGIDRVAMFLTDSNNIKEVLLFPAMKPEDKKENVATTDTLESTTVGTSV

On to `O=C(NCC1(O)CCC(F)(F)CC1)c1cc(=O)c2cc(F)ccc2o1` [DDD01510706], for which the IC50 in assay [1] was 20 µM; in assay [2], 240 nM.
With `O=C(NCC1CCCCC1)c1cc(=O)c2cc(F)cc(NS(=O)(=O)c3ccccc3)c2o1` [DDD02354914], the IC50 is 6.31 µM in assay [1] and 11.7 nM in assay [2].
For the compound `C[C@H]1CCC[C@H](C[C@H]2Cc3cc(O)cc(O)c3C(=O)O2)O1` [cladosporin], the “isothermal thermal proteome profiling at 57 °C in P. falciparum lysate” value in assay [3] was “The relative abundance of PfKRS was also significantly increased in lysates exposed to cladosporin”. The IC50 in assay [1] is above 100 µM; in assay [2], 47.9 nM.
For the compound `[N-]=[N+]=NCCOCCOCCOCCNC(=O)c1ccc(S(=O)(=O)Nc2cc(F)cc3c(=O)cc(C(=O)NCC4CCCCC4)oc23)cc1` [linker 1], the IC50 was 43.7 µM in assay [1] and 22.4 nM in assay [2].
